This is an account of results in patent publication US8367658B2, “Pyrazin-2-yl-pyridin-2-yl-amine and pyrazin-2-yl-pyrimidin-4-yl-amine compounds and their use” (Cancer Research Technology Limited, priority 2007, dated 2013).

Structures are written as SMILES.

This test deals with T1, CHK1 (Homo sapiens, UniProt O14757).
T1 sequence (O14757 1-476): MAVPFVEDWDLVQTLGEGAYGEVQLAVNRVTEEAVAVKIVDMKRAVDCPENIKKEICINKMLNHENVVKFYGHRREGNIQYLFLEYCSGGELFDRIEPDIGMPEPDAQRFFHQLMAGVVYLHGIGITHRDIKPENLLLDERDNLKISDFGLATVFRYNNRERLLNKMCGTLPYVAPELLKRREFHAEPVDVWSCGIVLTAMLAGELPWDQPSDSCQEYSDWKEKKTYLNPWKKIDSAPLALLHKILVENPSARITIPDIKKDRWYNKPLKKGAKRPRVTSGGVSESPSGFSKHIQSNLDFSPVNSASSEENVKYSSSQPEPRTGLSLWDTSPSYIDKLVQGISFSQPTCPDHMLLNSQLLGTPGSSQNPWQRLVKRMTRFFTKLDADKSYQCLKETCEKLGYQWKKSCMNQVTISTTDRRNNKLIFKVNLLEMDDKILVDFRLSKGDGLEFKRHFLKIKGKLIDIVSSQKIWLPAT
The experiment in a line: CHK1 kinase function inhibition assay (DELFIA, phosphorylation of a CDC25C peptide). In kind it is biochemical. As to conditions: CHK1 1 nM, ATP 30 μM, 30 minutes at room temperature. The protocol:
Measurement of Inhibition of CHK1 Kinase Function
CHK1 kinase function was measured in a DELFIA® assay in order to monitor phosphorylation of a CDC25C peptide using a specific phospho antibody.
The reaction mixture was incubated for 30 minutes at room temperature and then stopped by the addition of buffer (125 μL) containing 40 mM EDTA, 0.05% Tween 20, 0.1% BSA in TBS (10× concentrate, Sigma). An aliquot (100 μL) of the stopped reaction mixture was transferred to a black neutravidin-coated plate (Perbio) and incubated for 1 hour on a shaker (Titertek, Flow Laboratories) at room temperature. […] The plates were washed a further four times with wash buffer before the addition of enhancement solution (100 μL/well, PerkinElmer Life Sciences).
In turn, `CN(C)CC(=O)Nc1cnc(Nc2cnc(C#N)cn2)cc1N[C@@H]1CCCNC1` [Compound Y-043, (R)—N-(6-(5-Cyanopyrazin-2-ylamino)-4-(piperidin-3-ylamino)pyridin-3-yl)-2-(dimethylamino)acetamide] registered an IC50 of 100 to 1000 nM.
To `CN(C)CC(=O)Nc1cnc(Nc2cnc(C#N)cn2)cc1NCC1CCCNC1` (centres unmarked) [Compound Y-044, N-(6-(5-Cyanopyrazin-2-ylamino)-4-(piperidin-3-ylmethylamino)pyridin-3-yl)-2-(dimethylamino)acetamide] belongs 100 to 1000 nM; to `N#Cc1cnc(Nc2cc(NC3CCCCC3)c(N)cn2)cn1` [Compound Y-045, 5-(5-Amino-4-(cyclohexylamino)pyridin-2-ylamino)pyrazine-2-carbonitrile], 1000 to 10000 nM.
To `CN(C)CC(=O)Nc1cnc(Nc2cnc(C#N)cn2)cc1N[C@H]1CCCNC1` [Compound Y-046, (S)—N-(6-(5-Cyanopyrazin-2-ylamino)-4-(piperidin-3-ylamino)pyridin-3-yl)-2-(dimethylamino)acetamide] belongs 1000 to 10000 nM.
Take `N#Cc1cnc(Nc2cc(NC[C@H]3CCCNC3)c(N)cn2)cn1` [Compound Y-047, (S)-5-(5-Amino-4-(piperidin-3-ylmethylamino)pyridin-2-ylamino)pyrazine-2-carbonitrile]: the IC50 is at most 100 nM.
`N#Cc1cnc(Nc2cc(NC[C@@H]3CCCNC3)c(N)cn2)cn1` [Compound Y-048, (R)-5-(5-Amino-4-(piperidin-3-ylmethylamino)pyridin-2-ylamino)pyrazine-2-carbonitrile] yielded an IC50 of at most 100 nM.
In the case of `N#Cc1cnc(Nc2cc(NCCC(N)c3ccccc3)c(N)cn2)cn1` (centres unmarked) [Compound Y-050, 5-(5-Amino-4-(3-amino-3-phenylpropylamino)pyridin-2-ylamino)pyrazine-2-carbonitrile], the IC50 was in the range of 1000 to 10000 nM.
Regarding `N#Cc1cnc(Nc2cc(NCC3CCCCN3)c(N)cn2)cn1` (centres unmarked) [Compound Y-051, 5-(5-Amino-4-(piperidin-2-ylmethylamino)pyridin-2-ylamino)pyrazine-2-carbonitrile], the IC50 fell in the range of 1000 to 10000 nM.
Compound `N#Cc1cnc(Nc2cc(NCCC[C@H](N)C(=O)Nc3ccccc3)c(N)cn2)cn1` [Compound Y-052, (S)-2-Amino-5-(5-amino-2-(5-cyanopyrazin-2-ylamino)pyridin-4-ylamino)-N-phenylpentanamide] gave an IC50 of 1000 to 10000 nM.
Turning to `N#Cc1cnc(Nc2cc(NCC3CCCNC3)c(NC(=O)CCC3CCNCC3)cn2)cn1` (centres unmarked) [Compound Y-053, N-(6-(5-Cyanopyrazin-2-ylamino)-4-(piperidin-3-ylmethylamino)pyridin-3-yl)-3-(piperidin-4-yl)propanamide], the IC50 was at most 100 nM.
Regarding `Cc1ncsc1CCC(=O)Nc1cnc(Nc2cnc(C#N)cn2)cc1NCC1CCCNC1` (centres unmarked) [Compound Y-054, N-(6-(5-Cyanopyrazin-2-ylamino)-4-(piperidin-3-ylmethylamino)pyridin-3-yl)-3-(4-methylthiazol-5-yl)propanamide], the IC50 lay in the range of 1000 to 10000 nM.
The value for `N#Cc1cnc(Nc2cc(NCC3CCCNC3)c(NC(=O)CCN3CCOCC3)cn2)cn1` (centres unmarked) [Compound Y-055, N-(6-(5-Cyanopyrazin-2-ylamino)-4-(piperidin-3-ylmethylamino)pyridin-3-yl)-3-morpholinopropanamide] was 100 to 1000 nM.
For the compound `N#Cc1cnc(Nc2cc(NCC3CCCNC3)c(-n3cccc3)cn2)cn1` (centres unmarked) [Compound Y-056, 5-(4-(Piperidin-3-ylmethylamino)-5-(1H-pyrrol-1-yl)pyridin-2-ylamino)pyrazine-2-carbonitrile], the IC50 is at most 100 nM.
As to `N#Cc1cnc(Nc2cc(N[C@@H]3CCCNC3)c(-n3cccc3)cn2)cn1` [Compound Y-057, (R)-5-(4-(Piperidin-3-ylamino)-5-(1H-pyrrol-1-yl)pyridin-2-ylamino)pyrazine-2-carbonitrile], the IC50 was 100 to 1000 nM.
Take `CN1CCC(Nc2cc(Nc3cnc(C#N)cn3)ncc2-n2cccc2)CC1` [Compound Y-058, 5-(4-(1-Methylpiperidin-4-ylamino)-5-(1H-pyrrol-1-yl)pyridin-2-ylamino)pyrazine-2-carbonitrile]: the IC50 is at most 100 nM.
In the case of `N#Cc1cnc(Nc2cc(NCC3CCCNC3)c(N3CCCC3)cn2)cn1` (centres unmarked) [Compound Y-059, 5-(4-(Piperidin-3-ylmethylamino)-5-(pyrrolidin-1-yl)pyridin-2-ylamino)pyrazine-2-carbonitrile], the IC50 was at most 100 nM.
Consider `N#Cc1cnc(Nc2cc(NCC3CCCNC3)c(N3CC[C@H](O)C3)cn2)cn1` (stereo partly drawn) [Compound Y-060, 5-(5-((S)-3-Hydroxypyrrolidin-1-yl)-4-(piperidin-3-ylmethylamino)pyridin-2-ylamino)pyrazine-2-carbonitrile], for which the IC50 was at most 100 nM.
The compound `N#Cc1cnc(Nc2cc(NCC3CCCNC3)c(-n3ccc(CN4CCOCC4)c3)cn2)cn1` (centres unmarked) [Compound Y-062, 5-(5-(3-(Morpholinomethyl)-1H-pyrrol-1-yl)-4-(piperidin-3-ylmethylamino)pyridin-2-ylamino)pyrazine-2-carbonitrile] showed an IC50 of at most 100 nM.
With `N#Cc1cnc(Nc2cc(NCC3CCCNC3)c(-n3ccc(CO)c3)cn2)cn1` (centres unmarked) [Compound Y-063, 5-(5-(3-(Hydroxymethyl)-1H-pyrrol-1-yl)-4-(piperidin-3-ylmethylamino)pyridin-2-ylamino)pyrazine-2-carbonitrile], the IC50 was at most 100 nM.
The value for `CCOC(=O)c1ccn(-c2cnc(Nc3cnc(C#N)cn3)cc2NCC2CCCNC2)c1` (centres unmarked) [Compound Y-064, Ethyl 1-(6-(5-cyanopyrazin-2-ylamino)-4-(piperidin-3-ylmethylamino)pyridin-3-yl)-1H-pyrrole-3-carboxylate] was at most 100 nM; that for `N#Cc1cnc(Nc2cc(NCC3CCCNC3)c(-n3ccc(C(=O)O)c3)cn2)cn1` (centres unmarked) [Compound Y-065, 1-(6-(5-Cyanopyrazin-2-ylamino)-4-(piperidin-3-ylmethylamino)pyridin-3-yl)-1H-pyrrole-3-carboxylic acid] was 100 to 1000 nM; that for `N#Cc1cnc(Nc2cc(NCC3CCCNC3)c(-n3ccc(C(=O)NCCO)c3)cn2)cn1` (centres unmarked) [Compound Y-066, 1-(6-(5-Cyanopyrazin-2-ylamino)-4-(piperidin-3-ylmethylamino)pyridin-3-yl)-N-(2-hydroxyethyl)-1H-pyrrole-3-carboxamide] was 100 to 1000 nM.
To `N#Cc1cnc(Nc2cc(NCC3CCCNC3)c(-n3ccc(C(=O)NCCCO)c3)cn2)cn1` (centres unmarked) [Compound Y-067, 1-(6-(5-Cyanopyrazin-2-ylamino)-4-(piperidin-3-ylmethylamino)pyridin-3-yl)-N-(3-hydroxypropyl)-1H-pyrrole-3-carboxamide] belongs at most 100 nM; to `N#Cc1cnc(Nc2cc(OCC3CCOC3)c(NC(=O)CCC3CCNCC3)cn2)cn1` (centres unmarked) [Compound Y-068, N-(6-(5-Cyanopyrazin-2-ylamino)-4-((tetrahydrofuran-3-yl)methoxy)pyridin-3-yl)-3-(piperidin-4-yl)propanamide], 1000 to 10000 nM.
`N#Cc1cnc(Nc2cc(OCC3CCOCC3)c(NC(=O)CCC3CCNCC3)cn2)cn1` [Compound Y-069, N-(6-(5-Cyanopyrazin-2-ylamino)-4-((tetrahydro-2H-pyran-4-yl)methoxy)pyridin-3-yl)-3-(piperidin-4-yl)propanamide] had an IC50 of 1000 to 10000 nM.
For the compound `COC(=O)c1cnc(Nc2cnc(C#N)cn2)cc1N(C)C1CCN(C)CC1` [Compound Y-070, Methyl 6-(5-cyanopyrazin-2-ylamino)-4-(methyl(1-methylpiperidin-4-yl)amino)nicotinate], the IC50 is at most 100 nM.
Consider `COC(=O)c1cnc(Nc2cnc(C#N)cn2)cc1NC1CC2CCCC(C1)N2C` (centres unmarked) [Compound Y-071, Methyl 6-(5-cyanopyrazin-2-ylamino)-4-(9-methyl-9-azabicyclo[3.3.1]-nonan-3-ylamino)nicotinate], for which the IC50 lay within 100 to 1000 nM.
On to `COC(=O)c1cnc(Nc2cnc(C#N)cn2)cc1NCC1CCCCN1` (centres unmarked) [Compound Y-073, Methyl 6-(5-cyanopyrazin-2-ylamino)-4-(piperidin-2-ylmethylamino)-nicotinate], for which the IC50 was at most 100 nM.
`COC(=O)c1cnc(Nc2cnc(C#N)cn2)cc1NC1CCCNCC1` (centres unmarked) [Compound Y-076, Methyl 4-(azepan-4-ylamino)-6-(5-cyanopyrazin-2-ylamino)nicotinate] registered an IC50 of at most 100 nM.
The value for `CCCN1CCC(Nc2cc(Nc3cnc(C#N)cn3)ncc2C(=O)OC)CC1` [Compound Y-077, Methyl 6-(5-cyanopyrazin-2-ylamino)-4-(1-propylpiperidin-4-ylamino)nicotinate] was at most 100 nM; that for `COC(=O)c1cnc(Nc2cnc(C#N)cn2)cc1NC1CCNCC1` [Compound Y-078, Methyl 6-(5-cyanopyrazin-2-ylamino)-4-(piperidin-4-ylamino)nicotinate] was at most 100 nM.
The compound `CCCN1C2CCC1CC(Nc1cc(Nc3cnc(C#N)cn3)ncc1C(=O)OC)C2` (centres unmarked) [Compound Y-079, Methyl 6-(5-cyanopyrazin-2-ylamino)-4-(8-propyl-8-azabicyclo[3.2.1]octan-3-ylamino)nicotinate] came in with an IC50 of at most 100 nM.

By IC50 is commonly meant the midpoint of a concentration-inhibition curve. A high value points to lower potency.
